Measurements reported in patent US20040132731A1, “Novel combination” (priority 2002, published 2004).

System: spontaneously hypertensive rat (SHR)
Assay: Animal study: change in mean arterial pressure in anaesthetised spontaneously hypertensive rats
Format: in vivo
Details: anaesthetised male SHR; for Change in mean arterial pressure from vehicle: n=6/group, infusion at 0.5 mL/h, candesartan 0.02 μg/kg/min, PDE5 inhibitor 15.61 μg/kg/min, combination 15.61 μg/kg/min+0.02 μg/kg/min; for fall in MAP: text restatement of the table, combination vs sum of the two individual effects p=0.058
Protocol: The spontaneously hypertensive rat (SHR) is a widely used model of human hypertension. Anaesthetised male SHRs (250-450 g) were surgically prepared for the measurement of systolic, diastolic and mean arterial pressure. Cannulae were inserted into the jugular veins and carotid artery. The trachea was also cannulated to facilitate respiration. Following a 60 min post-surgical stabilisation period, arterial blood pressure and heart rate were recorded via a pressure transducer and PoNeMah data acquisition system.
Solutions of candesartan (0.02, μg/kg/min), PDE5 inhibitor (15.61 μg/kg/min) and a combination of PDE5 inhibitor and candesartan (15.61 μg/kg/min+0.02, μg/kg/min) were infused as appropriate at a rate of 0.5 mL/h. Control animals received compound vehicle (5% DMSO, 10% PEG200, 85% water for injection (v/v)).
Baseline haemodynamic parameters were recorded. Animals (n=6/group) were randomised to receive a primed infusion of either vehicle or PDE5 Inhibitor for a period of 60 min. At this point, these groups were further randomised to receive either (i) vehicle or PDE5 inhibitor alone, (ii) candesartan alone or (iii) a combination of candesartan and PDE5 inhibitor. Changes in mean arterial pressure were monitored during the study period.

| Structure (SMILES) | Change in mean arterial pressure from vehicle | fall in MAP |
| --- | --- | --- |
| CCc1c2nc(-c3cc(S(=O)(=O)N4CCN(CC)CC4)cnc3OCCOC)[nH]c(=O)c2nn1Cc1ccccn1 [PDE5 inhibitor, 3-ethyl-5-[5-(4-ethylpiperazin-1-ylsulphonyl)-2-(2-methoxyethoxy)pyridin-3-yl]-2 (pyridin-2-yl)methyl-2,6-dihydro-7H-pyrazolo[4,3-d]pyrimidin-7-one] | −7.4 mmHg | 7.4 mmHg |
| CCOc1nc2cccc(C(=O)O)c2n1Cc1ccc(-c2ccccc2-c2nnn[nH]2)cc1 [candesartan] | −3.2 mmHg | 3.2 mmHg |
